Consider 4 molecules from publication PMC11876601 (Molecular Systems Biology, 2025).

The subject of one assay is ACVR1. Details: method as in Klaeger et al. (2017). The settings on record: lysate 4 cell line mix (Colo205, K-562, MV-4-11, and SK-N-BE(2)), Kinobeads y, ref Klaeger et al. (2017); cited from earlier work.
For a further assay, the system named is PANC-1. Put plainly: cells. The settings on record: Homo sapiens, PANC-1, 72 h, read-out: EC50 [nM]. The arrangement: ATPlite luminescence viability of PDAC cell lines, 11-dose single-agent curves, 4-parameter fit. The method, boiled down: (§1)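 cells (1000 to 5000 per well) seeded 24 h before drug addition in a combination screen at 0.2% final DMSO. Controls were drug-free wells (negative) and 5 µM staurosporine (positive).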

Another assay concerns JAK1. Details: method as in Reinecke et al. (2023). The settings on record: JAK1, 5 cell line mix lysate, Kinobeads ε, ref Reinecke et al. (2023), cited from earlier work.
The next assay deals with PRKAB2. The arrangement: method as in Reinecke et al. (2023). The settings on record: PRKAB2, 5 cell line mix lysate, Kinobeads ε, ref Reinecke et al. (2023), cited from earlier work.
In the next assay the test system is MAPK8. Details: method as in Reinecke et al. (2023). The settings on record: MAPK8, 5 cell line mix lysate, Kinobeads ε, ref Reinecke et al. (2023), cited from earlier work.
The test system of a further assay is Capan-1 cells. Put plainly: Drug combination viability screen (ATPlite, 72 h). It is filed as cell-based, human. Details: AUC: unit not given beside the values; Reponse: unit not given here. The settings on record: for EC50: Homo sapiens, CAPAN-1. As to the method: (§2) Cell viability was assessed by measuring ATP levels to indicate metabolic activity.
(§3) Afterward, small amounts were transferred to 384-well intermediate plates (Greiner Bio-One GmbH, Germany). […] For drug combination screening, 1000 to 5000 cells were seeded into 384-well plates (CulturPlate™, Perkin Elmer, MA, USA) using a Multidrop™ Combi Reagent Dispenser (Thermo Scientific, MA, USA) in 50 µl medium per well 24 h prior to drug treatment (seeding densities see Appendix Table S1). […] The final DMSO concentration in each well was 0.2%. […] Eight wells per plate without library drug served as negative controls, and sixteen wells per plate containing 5 µM Staurosporine served as positive controls. Control plates not containing any drug were used to correct for incubation effects, and data quality was assessed by calculation of Z-prime of positive and negative controls according to1 Z-prime=1−3SDpos+3SDneg/[…] where SD is the standard deviation. […] Dose–response curves from the experimental and hypothetical data were compared, and shifts in AUC were used to describe combination effects (AUC∆ = AUChypothetical − AUCexperimental). […] Only combinations with R^2 > 0.8 in both conditions were considered in the synergy analysis.

For the next assay, the system named is Dan-G cells. Put plainly: Drug combination viability screen (ATPlite, 72 h). Format: cell-based, human. Details: AUC: unit not given beside the values; Reponse: unit not given here. The settings on record: for EC50: Homo sapiens. As to the method: as §2, §3
The test system of the next assay is FAMPAC cells. In words: Drug combination viability screen (ATPlite, 72 h). Format: cell-based, human. The arrangement: AUC: unit not given beside the values; Reponse: unit not given here. The settings on record: for EC50: Homo sapiens. The method, then:
as §2, §3

The test system of another assay is Dan-G. In words: cells. The arrangement: ATPlite luminescence viability of PDAC cell lines, 11-dose single-agent curves, 4-parameter fit. The settings on record: 72 h, read-out: EC50 [nM]. In a few lines:
as §1

A further assay concerns FAMPAC. Put plainly: cells. The arrangement: ATPlite luminescence viability of PDAC cell lines, 11-dose single-agent curves, 4-parameter fit. The settings on record: 72 h, read-out: EC50 [nM]. The method, boiled down: as §1
Another assay relates to Suit2-07. In words: cells. The arrangement: ATPlite luminescence viability of PDAC cell lines, 11-dose single-agent curves, 4-parameter fit. The settings on record: 72 h, read-out: EC50 [nM]. In a few lines: as §1

Where two headings read alike, the source gives them in different places.
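For AUC in this document: area under vehicle-normalized viability curve scaled 0 to 100 percent.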
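For Curve bottom in this document: fraction of vehicle control viability from four-parameter log-logistic fit.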

`C[C@]12O[C@H](C[C@]1(O)CO)n1c3ccccc3c3c4c(c5c6ccccc6n2c5c31)CNC4=O` [Lestaurtinib]: the EC50 in the assay with ACVR1 is […]; with PANC-1, greater than 10000 nM.
For `COc1cc(N2CCC(N3CCN(C)CC3)CC2)ccc1Nc1ncc(Cl)c(Nc2ccccc2P(C)(C)=O)n1` [Brigatinib], the EC50 in the assay with JAK1 is 373 nM; with PRKAB2 it was 546 nM; in the assay with MAPK8 it was 2200 nM. For the same molecule, the pKDapp at JAK1 was 6.86; at PRKAB2 it was 6.48; on MAPK8, 5.85. Also, the Kd at JAK1 (read-out: KDapp) was 139 nM; on PRKAB2 (read-out: KDapp), 328 nM; at MAPK8 (read-out: KDapp), 1420 nM.
Take `Nc1ccn([C@@H]2O[C@H](CO)[C@@H](O)C2(F)F)c(=O)n1` [GEM, Gemcitabine]: the Reponse was 1419520 in the assay on Capan-1 cells (Capan-1, R1, 13.72 nM); 1052200 in the assay on Capan-1 cells (Capan-1, R1, 41.15 nM); 1039880 in the assay on Capan-1 cells (Capan-1, R1, […] nM); 891520 in the assay on Capan-1 cells (Capan-1, R1, 370.37 nM); 819880 in the assay on Capan-1 cells (Capan-1, R1, 1111.11 nM); 826400 in the assay with Capan-1 cells (Capan-1, R1, 3333.33 nM). The Reponse was found to be 882520 in the assay on Capan-1 cells (Capan-1, R1, 10000 nM); 1725080 in the assay with Capan-1 cells (Capan-1, R2, 13.72 nM); 1554080 with Capan-1 cells (Capan-1, R2, 41.15 nM); 1198840 in the assay on Capan-1 cells (Capan-1, R2, […] nM); 1201400 in the assay on Capan-1 cells (Capan-1, R2, 370.37 nM); 991280 in the assay with Capan-1 cells (Capan-1, R2, 1111.11 nM). The Reponse with Capan-1 cells (Capan-1, R2, 3333.33 nM) worked out at 798760; with Capan-1 cells (Capan-1, R2, 10000 nM) it was 1054200; with Dan-G cells (Dan-G, R1, 13.72 nM) it was 414760; in the assay on Dan-G cells (Dan-G, R1, 41.15 nM), 446720; in the assay with Dan-G cells (Dan-G, R1, […] nM) it was 403560; in the assay on Dan-G cells (Dan-G, R1, 370.37 nM), 418200. Besides, the Reponse in the assay on Dan-G cells (Dan-G, R1, 1111.11 nM) is on record as 322600; in the assay with Dan-G cells (Dan-G, R1, 3333.33 nM), 330080; in the assay on Dan-G cells (Dan-G, R1, 10000 nM), 365160; in the assay with Dan-G cells (Dan-G, R2, 13.72 nM), 688800; with Dan-G cells (Dan-G, R2, 41.15 nM) it was 616960; in the assay with Dan-G cells (Dan-G, R2, […] nM), 613120. In addition, the Reponse with Dan-G cells (Dan-G, R2, 370.37 nM) worked out at 664240; in the assay on Dan-G cells (Dan-G, R2, 1111.11 nM), 563000; in the assay on Dan-G cells (Dan-G, R2, 3333.33 nM) it was 536360; in the assay on Dan-G cells (Dan-G, R2, 10000 nM) it was 535080; in the assay with FAMPAC cells (FAMPAC, R1, 13.72 nM), 385920; in the assay on FAMPAC cells (FAMPAC, R1, 41.15 nM), 215680. Besides, the Reponse was 157840 in the assay on FAMPAC cells (FAMPAC, R1, […] nM); 175320 in the assay with FAMPAC cells (FAMPAC, R1, 370.37 nM); 225320 in the assay on FAMPAC cells (FAMPAC, R1, 1111.11 nM); 238760 in the assay on FAMPAC cells (FAMPAC, R1, 3333.33 nM); 195520 with FAMPAC cells (FAMPAC, R1, 10000 nM); 606360 in the assay on FAMPAC cells (FAMPAC, R2, 13.72 nM). Moreover, the Reponse in the assay on FAMPAC cells (FAMPAC, R2, 41.15 nM) stood at 377000; with FAMPAC cells (FAMPAC, R2, […] nM) it was 333400; with FAMPAC cells (FAMPAC, R2, 370.37 nM) it was 317560; in the assay with FAMPAC cells (FAMPAC, R2, 1111.11 nM), 328240; in the assay on FAMPAC cells (FAMPAC, R2, 3333.33 nM), 349400; in the assay on FAMPAC cells (FAMPAC, R2, 10000 nM) it was 314920. Further, the Curve bottom turned out to be 0.16 with Capan-1 cells (Capan-1, GEM curve fit); 0.11 in the assay with Dan-G cells (Dan-G, GEM curve fit); 0.05 with FAMPAC cells (FAMPAC, GEM curve fit). For the same molecule, the Curve effect size in the assay with Capan-1 cells (Capan-1, GEM curve fit) was 0.84; in the assay with Dan-G cells (Dan-G, GEM curve fit) it was 0.89; in the assay on FAMPAC cells (FAMPAC, GEM curve fit) it was 0.95. The Curve slope in the assay on Capan-1 cells (Capan-1, GEM curve fit) came to 1.86; in the assay with Dan-G cells (Dan-G, GEM curve fit) it was 3.23; in the assay with FAMPAC cells (FAMPAC, GEM curve fit), 2.01. In addition, the Curve top in the assay on Capan-1 cells (Capan-1, GEM curve fit) was 1.03; with Dan-G cells (Dan-G, GEM curve fit) it was 0.99; in the assay with FAMPAC cells (FAMPAC, GEM curve fit), 0.99. Further, the AUC in the assay with Capan-1 cells (Capan-1, GEM curve fit, in %) turned out to be 31.71; in the assay on Dan-G cells (Dan-G, GEM curve fit, in %), 25.98; in the assay on FAMPAC cells (FAMPAC, GEM curve fit, in %), 25.43. In addition, the EC50 with Capan-1 cells (read-out: EC50) was 1.26 nM; with Capan-1 cells (read-out: pEC50 (converted)), 1.26 nM; in the assay on Dan-G cells (read-out: EC50), 1.1 nM; with Dan-G cells (read-out: pEC50 (converted)), 1.1 nM; in the assay with FAMPAC cells (read-out: EC50), 1.71 nM; in the assay with FAMPAC cells (read-out: pEC50 (converted)), 1.7 nM.
For `CCN1CCN(Cc2ccc(Nc3ncc(F)c(-c4cc(F)c5nc(C)n(C(C)C)c5c4)n3)nc2)CC1` [Abemaciclib], the EC50 was greater than 10000 nM with Dan-G, greater than 10000 nM in the assay on FAMPAC and 250 nM with Suit2-07.
